In patent US8622991B2, “Method and device for drug delivery” (Insuline Medical Ltd., priority 2007, dated 2014):

Assays:
[1] = temperature to which the insulin can be exposed (insulin infused tissue region); cited from earlier work
[2] = euglycemic glucose clamp study (Glucose Infusion Rate) after insulin pump bolus, with and without heating device; type: in vivo, human; details: FIG. 26a; for time to peak action (GIR): insulin bolus 0.15 U/kg by pump
Text: The infusion set includes a tube 44 and a catheter 47, which is inserted into the subcutaneous tissue. […] The controller unit has a switch/button 48 for manual operation and two indicators 49 for “treatment is on” and for battery status. The two components are connected by wires 43.
The controller monitors the electromagnetic emission from the pump. During a bolus mode, the pump emits a well defined series of electromagnetic pulses at constant rate, shown as arrows 42. […] The temperature of the heater is controlled by the controller using a temperature sensor 45 located on the heating element.
The flat heating element used in this example has several layers. The upper layer is a polyethylene layer which seals the element. Below that layer, there is an etched circuit, below which there is a copper layer for heat distribution and mechanical support. Below that layer, there is another sealing polyethylene layer, below which there is an adhesive tape from 3M® which is bio-compatible. The heater has a thickness of less than 0.2 mm and his diameter is 3 cm. Thin electric wires of length of 60 cm with small connectors at both ends connected the heater to the controller unit. The power used for the heating can be 2 Watts. The heating was turned on and off by the controller to stabilize the skin temperature at 39° C. The heat duration was set to 30 minutes, after which the temperature regulation was stopped.
The subject lied down in supine position.
The above described procedure was performed in the same subjects under the same conditions with and without using the heating device. The two graphs show the GIR in glucose milligrams per minutes per subject's kg vs. time. […] There are many attempts to compose such an “artificial pancreas” since the development of continuous glucose monitors. […] Thus, another use of the methods and devices by the present invention is to combine them with a glucose sensor, insulin delivery device and a control algorithm to provide a better accuracy and robustness of a closed loop glucose level control system.

Substance	maximal limiting temperature [1]	time to peak action (GIR) ([2]; with heating (skin 39° C., 30 minutes), same subject)	GIR decrease (indication for insulin clearance out of the circulation and cessation of systemic effects) ([2]; with heating compared to without heating, same subject)	time to peak action (GIR) ([2]; without heating, typical result in one diabetic subject)
Insulin aspart [Novolog]	37 °C	–	–	–
insulin	–	50 min	much faster	75 min
